US20260335332A1, “STABLE MONOHYDRATE FORM OF AVIBACTAM SODIUM SALT AND PREPARATION METHOD THEREFOR” (KYONGBO PHARM. CO., LTD., priority 2022, published 2026)
Like-named read-outs stand apart in the source and are kept apart here.

Columns and labels:
[1] = described in WO2011/042560 A1; cited from earlier work
[2] = Comparative accelerated stability test on purity/appearance changes (40° C., 75% relative humidity), HPLC; type: physicochemical; conditions: 6 weeks
Description: The novel monohydrate form “a” of avibactam sodium salt prepared in Example 1, the monohydrate form “A” and the anhydrous form “B” were each packaged in glass vials and stored at 40° C. and 75% relative humidity for 6 weeks and the purity changes thereof were measured by HPLC at weekly intervals.

TGA pattern measurement = type: physicochemical; conditions: 3 to 5 mg, 30 to 500° C. at 10 K/min; theoretical water content of the monohydrate 5.90%
Description: The TGA pattern was measured while heating 3 to 5 mg of the novel monohydrate form “a” of avibactam sodium salt prepared in Example 1 from 30 to 500° C. at a rate of 10 K/min. […] In addition, decomposition exotherm accompanied by weight loss at 200 to 220° C. was confirmed and the results are shown in FIG. 5.

[3] = Accelerated stability test on moisture content changes (40° C., 75% relative humidity), Karl-Fischer; type: physicochemical; conditions: glass vial, 6 weeks, Karl-Fischer moisture meter
Description: The novel monohydrate form “a” of avibactam sodium salt prepared in Example 1 was packaged in a glass vial and stored at 40° C. and 75% relative humidity for 6 weeks and the change in moisture content thereof was measured by a Karl-Fischer moisture meter at weekly intervals for about 6 weeks.

DSC pattern measurement = type: physicochemical; conditions: 3 to 5 mg, 25 to 500° C. at 10 K/min
Description: The DSC pattern was measured while heating 3 to 5 mg of the novel monohydrate form “a” of avibactam sodium salt prepared in Example 1 from 25 to 500° C. at a rate of 10 K/min. As a result, the exothermic decomposition peak was confirmed at 227.3° C. […] It was confirmed therefrom that it had different physicochemical properties from the monohydrate form “A”, and the results are shown in FIG. 6.

[4] = described in WO2011/042560 A1; cited from earlier work; remark: listed apart in the source

weight loss at 100 to 140° C. (TGA) (TGA pattern measurement) [%]	maintenance of monohydrate form (change in moisture content) [3]	exothermic decomposition peak (DSC) (DSC pattern measurement) [°C]	SMILES	stability during long storage and at higher temperature [1]	pharmaceutical stability compared with anhydrous form “B” ([2]; accelerated stability, vs anhydrous form “B”)	stability (purity changes) compared with monohydrate form “A” ([2]; glass vials, HPLC at weekly intervals, vs monohydrate form “A”)	exothermic decomposition peak (DSC) [4] [°C]
			NC(=O)[C@@H]1CC[C@@H]2CN1C(=O)N2OS(=O)(=O)O [form “E”, (1R,2S,5R)-7-oxo-6-sulfooxy-1,6-diazabicyclo[3.2.1]octane-2-carboxamide sodium]	tends to lose water and hydrolyze during long storage and at higher temperature			
5.57	maintained the monohydrate form thereof	227.3	NC(=O)[C@@H]1CC[C@@H]2CN1C(=O)N2OS(=O)(=O)O [form “a”, (1R,2S,5R)-7-oxo-6-sulfooxy-1,6-diazabicyclo[3.2.1]octane-2-carboxamide sodium]		pharmaceutically more stable than the form “B”	a more stable form than the monohydrate form “A”	238.9
